# Key:
# [1] = system: gene transcription in strain 2; experiment: Transcriptome analysis with added BMA, strain 2
# Experimental: (§1) Transcriptome analysis was carried out to characterize transcriptional activity in mutant microorganisms using standard methods.
# (§2) Sample Preparation • 1) Streak strains onto fresh MSX agar (15 g/L) plates directly from the cryostocks and incubate overnight at 37° C. • 2) Isolate single colonies and inoculate pre-cultures in MSX, using 50 ml shake flasks. Incubate overnight at 37° C. and 250 rpm. • 3) Inoculate cultures in MSX to an initial OD600 of 0.05, using 250 mL pyrex shake flasks with 24/29 neck join. Incubate at 37° C. and 250 rpm. Do 4 biological replicates (3 replicates for sequencing plus one backup)—4 flasks per strain. • 4) Seal shake flasks with sterile Suba seals. To monitor OD, take samples using a sterile syringe and needle after first swabbing the Suba seals with 70% ethanol. Monitor OD. • 5) When OD reaches 0.3, collect first sample for RNA extraction (“before” sample) into a pre-chilled falcon. Keep samples on ice. • 6) Immediately after, add 20% (v/v) BMA. Re-incubate cultures. • 7) Quickly process the samples according to the RNeasy kit protocol, until step 6 of protocol 1. Always keep samples on ice and store it at −80° C. until further use, if possible, flash freeze in liquid nitrogen it before storing. • 8) One hour after the first sample collection/BMA addition, collect the second sample for RNA extraction (“after” sample). Proceed as explained before. • 9) Continue to monitor the OD until the cultures reach 24 h. • To summarise, each strain tested will have 6 samples to send for sequencing, 3 collected right before the addition and 3 collected one hour after, plus 1 “back-up” for before and after, in case something goes wrong during extraction (8 samples total). Besides the WT strain with the addition of BMA, samples were also collected from a WT culture with no BMA, one hour after reaching OD of 0.3, as a control.
# (§3) Transcription was compared for a double mutant and the wild-type in the presence and absence of BMA relative to the level in the wild type in the absence of BMA. For the avoidance of doubt the level in the table is the ratio of the level in the strain under the BMA exposure relative to the level in the wild type in the absence of added BMA.
# [2] = system: gene transcription in strain 5; experiment: Transcriptome analysis with added BMA, strain 5
# Experimental: as §1, §2, §3
# [3] = system: gene transcription in strain 23; experiment: Transcriptome analysis with added BMA, strain 23
# Experimental: as §1, §2, §3
# [4] = system: gene transcription in wild type; experiment: Transcriptome analysis with added BMA, wild type
# Experimental: as §1, §2, §3
# [5] = system: gene transcription in double mutant; experiment: Transcriptome analysis with added BMA, double mutant
# Experimental: as §1, §2, §3
# E. coli BW 25113 = experiment: Growth of E. coli BW25113 (wild type) with BMA in M9 minimal medium
# [6] = BMA concentration increased further to 20% v/v
# [7] = Wild Type, 0.05% BMA (v/v), Table 2.2
# [8] = Wild Type, 0.1% BMA (v/v), Table 2.2
smiles,measurement,setting,value
"C=C(C)C(=O)OCCCC [BMA, butyl 2-methylprop-2-enoate]",IdhA transcription level relative to wild type without BMA,[1],11.32
same,acrA transcription level relative to wild type without BMA,[1],7.33
same,acrB transcription level relative to wild type without BMA,[1],6.68
same,adiY transcription level relative to wild type without BMA,[1],5.37
same,ariR transcription level relative to wild type without BMA,[1],35.30
same,asr transcription level relative to wild type without BMA,[1],95.27
same,bssR transcription level relative to wild type without BMA,[1],15.30
same,ibpA transcription level relative to wild type without BMA,[1],20.83
same,ibpB transcription level relative to wild type without BMA,[1],84.03
same,narG transcription level relative to wild type without BMA,[1],11.38
same,nirB transcription level relative to wild type without BMA,[1],8.77
same,nirD transcription level relative to wild type without BMA,[1],4.33
same,pspA transcription level relative to wild type without BMA,[1],15.40
same,pspB transcription level relative to wild type without BMA,[1],11.46
same,pspD transcription level relative to wild type without BMA,[1],11.22
same,pspc transcription level relative to wild type without BMA,[1],11.88
same,raiA transcription level relative to wild type without BMA,[1],14.09
same,rmf transcription level relative to wild type without BMA,[1],7.05
same,soxS transcription level relative to wild type without BMA,[1],4.10
same,spy transcription level relative to wild type without BMA,[1],22.92
same,ybfA transcription level relative to wild type without BMA,[1],18.45
same,ybhG transcription level relative to wild type without BMA,[1],6.87
same,ybiH transcription level relative to wild type without BMA,[1],8.65
same,ydgU transcription level relative to wild type without BMA,[1],31.80
same,yhjx transcription level relative to wild type without BMA,[1],7.35
same,yibT transcription level relative to wild type without BMA,[1],36.87
same,ymgA transcription level relative to wild type without BMA,[1],35.59
same,ymgC transcription level relative to wild type without BMA,[1],42.36
same,ynfM transcription level relative to wild type without BMA,[1],14.42
same,yohk transcription level relative to wild type without BMA,[1],8.45
same,IdhA transcription level relative to wild type without BMA,[2],18.24
same,acrA transcription level relative to wild type without BMA,[2],6.28
same,acrB transcription level relative to wild type without BMA,[2],7.49
same,adiY transcription level relative to wild type without BMA,[2],24.79
same,ariR transcription level relative to wild type without BMA,[2],21.79
same,asr transcription level relative to wild type without BMA,[2],160.42
same,bssR transcription level relative to wild type without BMA,[2],20.35
same,ibpA transcription level relative to wild type without BMA,[2],43.39
same,ibpB transcription level relative to wild type without BMA,[2],174.50
same,narG transcription level relative to wild type without BMA,[2],47.85
same,nirB transcription level relative to wild type without BMA,[2],34.19
same,nirD transcription level relative to wild type without BMA,[2],16.69
same,pspA transcription level relative to wild type without BMA,[2],23.32
same,pspB transcription level relative to wild type without BMA,[2],16.87
same,pspD transcription level relative to wild type without BMA,[2],14.10
same,pspc transcription level relative to wild type without BMA,[2],16.55
same,raiA transcription level relative to wild type without BMA,[2],20.11
same,rmf transcription level relative to wild type without BMA,[2],15.45
same,soxS transcription level relative to wild type without BMA,[2],41.81
same,spy transcription level relative to wild type without BMA,[2],20.88
same,ybfA transcription level relative to wild type without BMA,[2],20.19
same,ybhG transcription level relative to wild type without BMA,[2],18.33
same,ybiH transcription level relative to wild type without BMA,[2],15.30
same,ydgU transcription level relative to wild type without BMA,[2],48.46
same,yhjx transcription level relative to wild type without BMA,[2],105.59
same,yibT transcription level relative to wild type without BMA,[2],29.57
same,ymgA transcription level relative to wild type without BMA,[2],16.41
same,ymgC transcription level relative to wild type without BMA,[2],17.15
same,ynfM transcription level relative to wild type without BMA,[2],40.65
same,yohk transcription level relative to wild type without BMA,[2],16.04
same,IdhA transcription level relative to wild type without BMA,[3],28.20
same,acrA transcription level relative to wild type without BMA,[3],6.50
same,acrB transcription level relative to wild type without BMA,[3],7.66
same,adiY transcription level relative to wild type without BMA,[3],6.73
same,ariR transcription level relative to wild type without BMA,[3],14.82
same,asr transcription level relative to wild type without BMA,[3],123.20
same,bssR transcription level relative to wild type without BMA,[3],71.61
same,ibpA transcription level relative to wild type without BMA,[3],31.35
same,ibpB transcription level relative to wild type without BMA,[3],41.67
same,narG transcription level relative to wild type without BMA,[3],42.52
same,nirB transcription level relative to wild type without BMA,[3],25.46
same,nirD transcription level relative to wild type without BMA,[3],25.17
same,pspA transcription level relative to wild type without BMA,[3],32.81
same,pspB transcription level relative to wild type without BMA,[3],27.16
same,pspD transcription level relative to wild type without BMA,[3],28.18
same,pspc transcription level relative to wild type without BMA,[3],28.45
same,raiA transcription level relative to wild type without BMA,[3],31.13
same,rmf transcription level relative to wild type without BMA,[3],8.80
same,soxS transcription level relative to wild type without BMA,[3],30.40
same,spy transcription level relative to wild type without BMA,[3],4.79
same,ybfA transcription level relative to wild type without BMA,[3],29.99
same,ybhG transcription level relative to wild type without BMA,[3],20.82
same,ybiH transcription level relative to wild type without BMA,[3],16.75
same,ydgU transcription level relative to wild type without BMA,[3],50.45
same,yhjx transcription level relative to wild type without BMA,[3],596.44
same,yibT transcription level relative to wild type without BMA,[3],42.63
same,ymgA transcription level relative to wild type without BMA,[3],8.84
same,ymgC transcription level relative to wild type without BMA,[3],7.42
same,ynfM transcription level relative to wild type without BMA,[3],41.92
same,yohk transcription level relative to wild type without BMA,[3],10.04
same,IdhA transcription level relative to wild type without BMA,[4],0.59
same,acrA transcription level relative to wild type without BMA,[4],0.64
same,acrB transcription level relative to wild type without BMA,[4],0.98
same,adiY transcription level relative to wild type without BMA,[4],0.19
same,ariR transcription level relative to wild type without BMA,[4],0.44
same,asr transcription level relative to wild type without BMA,[4],0.22
same,bssR transcription level relative to wild type without BMA,[4],0.46
same,ibpA transcription level relative to wild type without BMA,[4],0.09
same,ibpB transcription level relative to wild type without BMA,[4],0.42
same,narG transcription level relative to wild type without BMA,[4],0.40
same,nirB transcription level relative to wild type without BMA,[4],0.06
same,nirD transcription level relative to wild type without BMA,[4],0.57
same,pspA transcription level relative to wild type without BMA,[4],0.04
same,pspB transcription level relative to wild type without BMA,[4],0.73
same,pspD transcription level relative to wild type without BMA,[4],0.14
same,pspc transcription level relative to wild type without BMA,[4],0.10
same,raiA transcription level relative to wild type without BMA,[4],0.11
same,rmf transcription level relative to wild type without BMA,[4],0.28
same,soxS transcription level relative to wild type without BMA,[4],0.24
same,spy transcription level relative to wild type without BMA,[4],3.91
same,ybfA transcription level relative to wild type without BMA,[4],0.39
same,ybhG transcription level relative to wild type without BMA,[4],0.19
same,ybiH transcription level relative to wild type without BMA,[4],0.04
same,ydgU transcription level relative to wild type without BMA,[4],7.95
same,yhjx transcription level relative to wild type without BMA,[4],1.72
same,yibT transcription level relative to wild type without BMA,[4],0.09
same,ymgA transcription level relative to wild type without BMA,[4],0.16
same,ymgC transcription level relative to wild type without BMA,[4],6.27
same,ynfM transcription level relative to wild type without BMA,[4],0.07
same,yohk transcription level relative to wild type without BMA,[4],0.13
same,acrA transcription level relative to wild type without BMA,[5]; LM double mutant,5.13
same,acrB transcription level relative to wild type without BMA,[5]; LM double mutant,4.99
same,IdhA transcription level relative to wild type without BMA,[5]; double mutant,30.42
same,adiY transcription level relative to wild type without BMA,[5]; double mutant,10.80
same,ariR transcription level relative to wild type without BMA,[5]; double mutant,8.91
same,asr transcription level relative to wild type without BMA,[5]; double mutant,711.06
same,bssR transcription level relative to wild type without BMA,[5]; double mutant,5.47
same,ibpA transcription level relative to wild type without BMA,[5]; double mutant,80.35
same,ibpB transcription level relative to wild type without BMA,[5]; double mutant,672.54
same,narG transcription level relative to wild type without BMA,[5]; double mutant,3.23
same,nirB transcription level relative to wild type without BMA,[5]; double mutant,3.28
same,nirD transcription level relative to wild type without BMA,[5]; double mutant,3.57
same,pspA transcription level relative to wild type without BMA,[5]; double mutant,27.60
same,pspB transcription level relative to wild type without BMA,[5]; double mutant,11.73
same,pspD transcription level relative to wild type without BMA,[5]; double mutant,10.00
same,pspc transcription level relative to wild type without BMA,[5]; double mutant,11.09
same,raiA transcription level relative to wild type without BMA,[5]; double mutant,36.36
same,rmf transcription level relative to wild type without BMA,[5]; double mutant,17.63
same,soxS transcription level relative to wild type without BMA,[5]; double mutant,20.93
same,spy transcription level relative to wild type without BMA,[5]; double mutant,99.47
same,ybfA transcription level relative to wild type without BMA,[5]; double mutant,59.92
same,ybhG transcription level relative to wild type without BMA,[5]; double mutant,10.78
same,ybiH transcription level relative to wild type without BMA,[5]; double mutant,7.73
same,ydgU transcription level relative to wild type without BMA,[5]; double mutant,188.87
same,yhjx transcription level relative to wild type without BMA,[5]; double mutant,2.32
same,yibT transcription level relative to wild type without BMA,[5]; double mutant,43.57
same,ymgA transcription level relative to wild type without BMA,[5]; double mutant,9.97
same,ymgC transcription level relative to wild type without BMA,[5]; double mutant,11.68
same,ynfM transcription level relative to wild type without BMA,[5]; double mutant,29.92
same,yohk transcription level relative to wild type without BMA,[5]; double mutant,19.51
same,Growth rate,E. coli BW 25113; 0.01% v/v BMA,0.617 ± 0.009 h⁻¹
same,Lag phase,E. coli BW 25113; 0.01% v/v BMA,2 h
same,Max cell concentration,E. coli BW 25113; 0.01% v/v BMA,1.365 ± 0.120 g/L
same,Growth rate,E. coli BW 25113; 0.05% v/v BMA,0.517 ± 0.014 h⁻¹
same,Lag phase,E. coli BW 25113; 0.05% v/v BMA,4 h
same,Max cell concentration,E. coli BW 25113; 0.05% v/v BMA,1.269 ± 0.074 g/L
same,Growth rate,E. coli BW 25113; 0.1% v/v BMA,0.519 ± 0.010 h⁻¹
same,Lag phase,E. coli BW 25113; 0.1% v/v BMA,12 h
same,Max cell concentration,E. coli BW 25113; 0.1% v/v BMA,1.335 ± 0.074 g/L
same,Consistency of growth,E. coli BW 25113; [6],growth was inconsistent
same,Incubation time after which cell growth was observed,E. coli BW 25113; [6],24 to 36 h
same,BMA concentration that inhibits the growth of E. coli,"E. coli BW 25113; M9 minimal medium, 37° C.",above 0.05 % v/v
same,Growth rate,E. coli BW 25113; [7],0.517 ± 0.014 h⁻¹
same,Lag time,E. coli BW 25113; [7],4 h
same,Max cell concentration,E. coli BW 25113; [7],1.269 ± 0.074 g/L
same,Growth rate,E. coli BW 25113; [8],0.519 ± 0.010 h⁻¹
same,Lag time,E. coli BW 25113; [8],12 h
same,Max cell concentration,E. coli BW 25113; [8],1.335 ± 0.074 g/L
same,Time after inoculation at which significant growth was exhibited,"E. coli BW 25113; […], same conditions",12 h

# Reference: patent US11781160B2, “Methods for the production of methacrylates” (priority 2018, dated 2023)
